Results from patent US12540131B2 (Merck Sharp & Dohme LLC, priority 2019, dated 2026).

Molecular target: GST tagged truncated human mutant G2019S LRRK2 (Homo sapiens (Human), UniProt Q5S007, G2019S)
Test: LRRK2 Km ATP LanthaScreen Assay
Format: biochemical
Conditions: G2019S LRRK2, 134 μM ATP (Km ATP), mean values; for IC50: read-out: LRRK2 pIC50 (converted)
In short: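 Enzyme (GST-tagged, truncated) was preincubated with compound for 15 min at RT in 50 mM Tris pH 8.5, 10 mM MgCl2, 0.01% Brij-35, 1 mM EGTA, 2 mM DTT and 0.05 mM orthovanadate. Fluorescein-LRRKtide and 134 μM ATP (Km) were then added for 90 min. EDTA and Tb-anti-pERM antibody stopped the reaction; the TR-FRET 520/495 ratio gave 4-parameter IC50s, reported as mean pIC50.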

GST tagged truncated human mutant G2019S LRRK2, sequence (Q5S007 970-2527 G2019S): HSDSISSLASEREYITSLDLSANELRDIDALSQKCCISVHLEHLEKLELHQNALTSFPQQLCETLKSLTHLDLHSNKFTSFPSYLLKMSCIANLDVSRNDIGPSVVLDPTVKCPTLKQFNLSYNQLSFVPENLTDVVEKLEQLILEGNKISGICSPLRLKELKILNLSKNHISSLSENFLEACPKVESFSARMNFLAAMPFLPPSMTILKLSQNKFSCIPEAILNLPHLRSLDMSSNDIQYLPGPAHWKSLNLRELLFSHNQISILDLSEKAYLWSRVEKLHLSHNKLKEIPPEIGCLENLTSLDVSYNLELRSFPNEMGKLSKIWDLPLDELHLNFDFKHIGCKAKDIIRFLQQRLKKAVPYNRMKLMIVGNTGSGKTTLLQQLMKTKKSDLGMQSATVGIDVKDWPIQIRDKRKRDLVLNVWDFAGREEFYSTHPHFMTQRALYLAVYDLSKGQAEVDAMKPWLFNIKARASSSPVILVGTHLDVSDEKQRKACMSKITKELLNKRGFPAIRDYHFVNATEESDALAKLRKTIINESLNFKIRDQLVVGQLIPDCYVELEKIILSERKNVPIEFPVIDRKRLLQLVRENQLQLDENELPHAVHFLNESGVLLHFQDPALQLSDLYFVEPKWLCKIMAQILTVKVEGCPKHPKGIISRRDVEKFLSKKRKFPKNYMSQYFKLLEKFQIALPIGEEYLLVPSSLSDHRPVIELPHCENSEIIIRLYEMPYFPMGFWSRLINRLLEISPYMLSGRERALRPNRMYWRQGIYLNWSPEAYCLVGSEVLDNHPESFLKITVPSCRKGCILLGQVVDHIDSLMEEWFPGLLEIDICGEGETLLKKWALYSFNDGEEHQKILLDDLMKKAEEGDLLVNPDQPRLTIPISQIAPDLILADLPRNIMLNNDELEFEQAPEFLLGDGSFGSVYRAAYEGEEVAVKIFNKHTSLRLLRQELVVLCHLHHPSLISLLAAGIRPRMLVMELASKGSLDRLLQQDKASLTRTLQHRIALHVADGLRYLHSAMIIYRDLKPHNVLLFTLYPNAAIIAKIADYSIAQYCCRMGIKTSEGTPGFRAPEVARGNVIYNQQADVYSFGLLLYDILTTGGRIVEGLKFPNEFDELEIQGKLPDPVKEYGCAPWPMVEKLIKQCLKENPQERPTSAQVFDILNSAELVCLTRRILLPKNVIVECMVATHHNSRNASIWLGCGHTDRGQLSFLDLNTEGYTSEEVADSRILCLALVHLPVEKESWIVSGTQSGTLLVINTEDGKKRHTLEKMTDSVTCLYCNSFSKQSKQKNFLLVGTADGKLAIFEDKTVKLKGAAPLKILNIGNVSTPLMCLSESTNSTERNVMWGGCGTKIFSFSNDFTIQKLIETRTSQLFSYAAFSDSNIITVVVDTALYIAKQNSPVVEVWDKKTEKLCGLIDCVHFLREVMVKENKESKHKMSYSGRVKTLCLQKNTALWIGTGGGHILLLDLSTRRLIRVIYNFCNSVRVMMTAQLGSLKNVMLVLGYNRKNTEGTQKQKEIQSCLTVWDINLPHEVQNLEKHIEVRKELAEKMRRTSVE

Row | Structure (SMILES) | LRRK2 pIC50 | IC50
1 | N#Cc1cc2cnc(Nc3cnn(C4CC4(F)F)c3Cl)nc2cc1[C@@H]1CCN(C2COC2)C[C@H]1F (single isomer, unassigned) [Ex-6.5, (R)(3S,4S) or (S)(3S,4S) or (R)(3R,4R) or (S)(3R,4R) 2-((5-chloro-1-(2,2-difluorocyclopropyl)-1H-pyrazol-4-yl)amino)-7-(3-fluoro-1-(oxetan-3-yl)piperidin-4-yl)quinazoline-6-carbonitrile] | >9.20 | –
2 | N#Cc1cc2cnc(Nc3cnn(C4CC4(F)F)c3Cl)nc2cc1[C@H]1CCN(C2COC2)C[C@@H]1F (single isomer, unassigned) [Ex-6.6, (R)(3S,4S) or (S)(3S,4S) or (R)(3R,4R) or (S)(3R,4R) 2-((5-chloro-1-(2,2-difluorocyclopropyl)-1H-pyrazol-4-yl)amino)-7-(3-fluoro-1-(oxetan-3-yl)piperidin-4-yl)quinazoline-6-carbonitrile] | 8.94 | –
3 | N#Cc1cc2cnc(Nc3cnn(C4CC4(F)F)c3Cl)nc2cc1[C@H]1CCN(C2COC2)C[C@@H]1F (single isomer, unassigned) [Ex-6.7, (R)(3S,4S) or (S)(3S,4S) or (R)(3R,4R) or (S)(3R,4R) 2-((5-chloro-1-(2,2-difluorocyclopropyl)-1H-pyrazol-4-yl)amino)-7-(3-fluoro-1-(oxetan-3-yl)piperidin-4-yl)quinazoline-6-carbonitrile] | 9.01 | –
4 | CO[C@@H]1COC[C@]1(C)N1CCC(c2cc3nc(Nc4cnn(C5CC5)c4C)ncc3cc2Cl)CC1 (single isomer, unassigned) [Ex-7.3, (3S,4S) or (3R,4R) 6-chloro-N-(1-cyclopropyl-5-methyl-1H-pyrazol-4-yl)-7-(1-(4-methoxy-3-methyltetrahydrofuran-3-yl)piperidin-4-yl)quinazolin-2-amine] | – | 11.7 nM
5 | Cc1c(Nc2ncc3cc(Cl)c(C4CCN(C5COCC5F)CC4)cc3n2)cnn1C1CC1 (single isomer, unassigned) [Ex-7.4, (3S,4S) or (3R,4R) or (3S,4R) or (3R,4S) 6-chloro-N-(1-cyclopropyl-5-methyl-1H-pyrazol-4-yl)-7-[1-(4-fluorooxolan-3-yl)piperidin-4-yl]quinazolin-2-amine] | >9.20 | –
6 | CO[C@H]1COC[C@H]1N1CCC(c2cc3nc(Nc4cnn(C5CC5)c4C)ncc3cc2Cl)CC1 (single isomer, unassigned) [Ex-7.5, (3S,4S) or (3R,4R) 6-chloro-N-(1-cyclopropyl-5-methyl-1H-pyrazol-4-yl)-7-[1-(4-methoxyoxolan-3-yl)piperidin-4-yl]quinazolin-2-amine] | >9.20 | –
7 | Cc1cc2cnc(Nc3cnn(C4CC4(F)F)c3C)nc2cc1[C@@H]1CCN(C2COCC2F)C[C@H]1F (single isomer, unassigned) [Ex-7.6] | >9.20 | –
8 | Cc1cc2cnc(Nc3cnn(C4CC4)c3Cl)nc2cc1[C@@H]1CCN(C2COCC2F)C[C@H]1F (single isomer, unassigned) [Ex-7.9, (3S,4R)(3S,4S) or (3R,4S)(3S,4S) or (3R,4R)(3S,4S) or (3S,4S)(3S,4S) or (3S,4R)(3R,4R) or (3R,4S)(3R,4R) or (3R,4R)(3R,4R) or (3S,4S)(3R,4R) N-(5-chloro-1-cyclopropyl-1H-pyrazol-4-yl)-7-[3-fluoro-1-(4-fluorooxolan-3-yl)piperidin-4-yl]-6-methylquinazolin-2-amine] | 9.04 | –
9 | CC(n1ncc(Nc2ncc3cc(Cl)c(C4CCN(C5COC5)CC4)cc3n2)c1Cl)C(F)(F)F (single isomer, unassigned) [Ex-8.3, (S) or (R) 6-chloro-N-[5-chloro-1-(1,1,1-trifluoropropan-2-yl)-1H-pyrazol-4-yl]-7-[1-(oxetan-3-yl)piperidin-4-yl]quinazolin-2-amine] | – | < 0.631 nM
10 | Cc1nsc(Nc2ncc3cc(Cl)c(C4CCN(C5CCOC5)CC4)cc3n2)c1Cl (single isomer, unassigned) [Ex-8.18, (S) or (R) 6-chloro-N-(4-chloro-3-methyl-1,2-thiazol-5-yl)-7-[1-(oxolan-3-yl)piperidin-4-yl]quinazolin-2-amine] | – | < 0.631 nM
11 | Cc1nsc(Nc2ncc3cc(Cl)c(C4CCN(C5CCOC5)CC4)cc3n2)c1Cl (single isomer, unassigned) [Ex-8.19, (S) or (R) 6-chloro-N-(4-chloro-3-methyl-1,2-thiazol-5-yl)-7-[1-(oxolan-3-yl)piperidin-4-yl]quinazolin-2-amine] | – | 1.15 nM
12 | Cc1nsc(Nc2ncc3cc(Cl)c([C@@H]4CCN(C5CCOC5)C[C@H]4F)cc3n2)c1Cl (single isomer, unassigned) [Ex-8.20, (3S,4S)(S) or (3S,4S)(R) or (3R,4R)(S) or (3R,4R)(R) 6-chloro-N-(4-chloro-3-methyl-1,2-thiazol-5-yl)-7-[3-fluoro-1-(oxolan-3-yl)piperidin-4-yl]quinazolin-2-amine] | 8.53 | –
13 | Cc1nsc(Nc2ncc3cc(Cl)c([C@@H]4CCN(C5CCOC5)C[C@H]4F)cc3n2)c1Cl (single isomer, unassigned) [Ex-8.21, (3S,4S)(S) or (3S,4S)(R) or (3R,4R)(S) or (3R,4R)(R) 6-chloro-N-(4-chloro-3-methyl-1,2-thiazol-5-yl)-7-[3-fluoro-1-(oxolan-3-yl)piperidin-4-yl]quinazolin-2-amine] | 8.44 | –
14 | Cc1nsc(Nc2ncc3cc(Cl)c([C@H]4CCN(C5CCOC5)C[C@@H]4F)cc3n2)c1Cl (single isomer, unassigned) [Ex-8.22, (3S,4S)(S) or (3S,4S)(R) or (3R,4R)(S) or (3R,4R)(R) 6-chloro-N-(4-chloro-3-methyl-1,2-thiazol-5-yl)-7-[3-fluoro-1-(oxolan-3-yl)piperidin-4-yl]quinazolin-2-amine] | 8.68 | –
15 | Cc1nsc(Nc2ncc3cc(Cl)c([C@H]4CCN(C5CCOC5)C[C@@H]4F)cc3n2)c1Cl (single isomer, unassigned) [Ex-8.23, (3S,4S)(S) or (3S,4S)(R) or (3R,4R)(S) or (3R,4R)(R) 6-chloro-N-(4-chloro-3-methyl-1,2-thiazol-5-yl)-7-[3-fluoro-1-(oxolan-3-yl)piperidin-4-yl]quinazolin-2-amine] | 8.12 | –
16 | CC(O)(Cn1ncc(Nc2ncc3cc(Cl)c(C4CCN(C5COC5)CC4)cc3n2)c1Cl)C(F)(F)F (single isomer, unassigned) [Ex-8.25, (S) or (R) 3-[5-chloro-4-({6-chloro-7-[1-(oxetan-3-yl)piperidin-4-yl]quinazolin-2-yl}amino)-1H-pyrazol-1-yl]-1,1,1-trifluoro-2-methylpropan-2-ol] | – | < 0.631 nM
17 | CC(O)(Cn1ncc(Nc2ncc3cc(Cl)c(C4CCN(C5COC5)CC4)cc3n2)c1Cl)C(F)(F)F (single isomer, unassigned) [Ex-8.27, (S) or (R) 3-[5-chloro-4-({6-chloro-7-[1-(oxetan-3-yl)piperidin-4-yl]quinazolin-2-yl}amino)-1H-pyrazol-1-yl]-1,1,1-trifluoro-2-methylpropan-2-ol] | – | 0.851 nM
18 | F[C@@H]1CN(C2COC2)CC[C@H]1c1cc2nc(Nc3cnn(C4CC4(F)F)c3Cl)ncc2cc1Cl (single isomer, unassigned) [Ex-8.28, (R)(3S,4S) or (S)(3S,4S) or (R)(3R,4R) or (S)(3R,4R) 6-chloro-N-[5-chloro-1-(2,2-difluorocyclopropyl)-1H-pyrazol-4-yl]-7-[3-fluoro-1-(oxetan-3-yl)piperidin-4-yl]quinazolin-2-amine] | 9.04 | –
19 | F[C@@H]1CN(C2COC2)CC[C@H]1c1cc2nc(Nc3cnn(C4CC4(F)F)c3Cl)ncc2cc1Cl (single isomer, unassigned) [Ex-8.29, (R)(3S,4S) or (S)(3S,4S) or (R)(3R,4R) or (S)(3R,4R) 6-chloro-N-[5-chloro-1-(2,2-difluorocyclopropyl)-1H-pyrazol-4-yl]-7-[3-fluoro-1-(oxetan-3-yl)piperidin-4-yl]quinazolin-2-amine] | 8.88 | –
20 | F[C@H]1CN(C2COC2)CC[C@@H]1c1cc2nc(Nc3cnn(C4CC4(F)F)c3Cl)ncc2cc1Cl (single isomer, unassigned) [Ex-8.30, (R)(3S,4S) or (S)(3S,4S) or (R)(3R,4R) or (S)(3R,4R) 6-chloro-N-[5-chloro-1-(2,2-difluorocyclopropyl)-1H-pyrazol-4-yl]-7-[3-fluoro-1-(oxetan-3-yl)piperidin-4-yl]quinazolin-2-amine] | 8.96 | –
21 | F[C@H]1CN(C2COC2)CC[C@@H]1c1cc2nc(Nc3cnn(C4CC4(F)F)c3Cl)ncc2cc1Cl (single isomer, unassigned) [Ex-8.31, (R)(3S,4S) or (S)(3S,4S) or (R)(3R,4R) or (S)(3R,4R) 6-chloro-N-[5-chloro-1-(2,2-difluorocyclopropyl)-1H-pyrazol-4-yl]-7-[3-fluoro-1-(oxetan-3-yl)piperidin-4-yl]quinazolin-2-amine] | >9.20 | –
22 | O[C@@H]1COC[C@@H]1N1CC[C@H](c2cc3nc(Nc4cnn(C56CC(C5)C6)c4Cl)ncc3cc2Cl)[C@@H](F)C1 (single isomer, unassigned) [Ex-8.32, (3S,4S)(3S,4S) or (3S,4S)(3R,4R) or (3R,4R)(3S,4S) or (3R,4R)(3R,4R) 4-[4-(2-{[1-(bicyclo[1.1.1]pentan-1-yl)-5-chloro-1H-pyrazol-4-yl]amino}-6-chloroquinazolin-7-yl)-3-fluoropiperidin-1-yl]oxolan-3-ol] | 9.05 | –
23 | Cc1cc2cnc(Nc3cnn(C45CC(C4)C5)c3Cl)nc2cc1[C@@H]1CCN([C@@H]2COC[C@@H]2O)C[C@H]1F (single isomer, unassigned) [Ex-8.33, (3S,4S)(3S,4S) or (3S,4S)(3R,4R) or (3R,4R)(3S,4S) or (3R,4R)(3R,4R) 4-[4-(2-{[1-(bicyclo[1.1.1]pentan-1-yl)-5-chloro-1H-pyrazol-4-yl]amino}-6-methylquinazolin-7-yl)-3-fluoropiperidin-1-yl]oxolan-3-ol] | >9.20 | –
